Our source for the IC50 values is patent US9969752B2, “Inhibitors of HIF prolyl hydroxylase” (MERCK SHARP & DOHME CORP., priority 2014, dated 2018).

pIC50: −log10 of the molar value.

In one assay the target is T1, Human HIF-PHD2 (Homo sapiens, UniProt Q9GZT9).
T1 construct: FLAG-tagged full length PHD2 expressed in and purified from baculovirus-infected Sf9 cells; FLAG; made in house; host or cells: baculovirus-infected Sf9 cells
T1 sequence (Q9GZT9 whole entry): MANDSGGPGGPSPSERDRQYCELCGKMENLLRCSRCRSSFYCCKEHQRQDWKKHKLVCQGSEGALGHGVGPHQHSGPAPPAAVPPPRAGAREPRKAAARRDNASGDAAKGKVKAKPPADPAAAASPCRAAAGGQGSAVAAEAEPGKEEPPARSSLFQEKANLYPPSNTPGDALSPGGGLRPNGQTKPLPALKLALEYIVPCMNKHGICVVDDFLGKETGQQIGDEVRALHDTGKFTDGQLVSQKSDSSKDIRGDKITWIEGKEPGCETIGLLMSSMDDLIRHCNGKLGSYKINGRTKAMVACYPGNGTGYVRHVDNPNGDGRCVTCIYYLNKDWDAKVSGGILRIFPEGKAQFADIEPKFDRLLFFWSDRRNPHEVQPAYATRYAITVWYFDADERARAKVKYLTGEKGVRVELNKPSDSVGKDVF
Kind of assay: Inhibition of the hydroxylation of a HIF peptide by PHD2 (time resolved fluorescence, 384-well). The conditions noted are these: FLAG-tagged full length PHD2; 0.2 μM 2-oxoglutarate, 0.5 μM HIF-1α peptide; 45 minutes at room temperature; read-out: Human HIF-PHD2 IC50. The format is biochemical. As for the experimental part:
To each well of a 384-well plate, 1 μL of test compounds in DMSO (final concentration ranging from 0.3 nM to 10 uM) were added into 20 μl of assay buffer (50 mM Tris pH 7.4/0.01% Tween-20/0.1 mg/ml bovine serum albumin/10 μM ferrous sulfate/1 mM sodium ascorbate/20 μg/ml catalase) containing 0.15 μg/ml FLAG-tagged full length PHD2 expressed in and purified from baculovirus-infected Sf9 cells. After a 5 min preincubation at room temperature, the enzymatic reactions were initiated by the addition of 4 μL of substrates {final concentrations of 0.2 μM 2-oxoglutarate and 0.5 μM HIF-1α peptide biotinyl-[…] […] After incubation for 45 minutes at room temperature, the reactions were terminated by the addition of a 25 μL quench/detection mix to a final concentration of 1 mM ortho-phenanthroline, 0.1 mM EDTA, 0.5 nM anti-(His)6 LANCE reagent (Perkin-Elmer Life Sciences), 100 nM AF647-labeled streptavidin (Invitrogen), and 2 μg/ml (His)6-VHL complex {S. Tan Protein Expr. Purif.
As for `Cc1ccc2c(O)c(C(=O)NCC(=O)O)c(=O)n3c2c1OC(c1ccc(C(F)(F)F)cc1)C3` (stereo not shown) [Example 25, 2-(7-Hydroxy-10-methyl-5-oxo-2-(4-(trifluoromethyl)phenyl)-3,5-dihydro-2H-[1,4]oxazino[2,3,4-ij]quinoline-6-carboxamido)acetic acid], the pIC50 was 8.27. Regarding `O=C(O)CNC(=O)c1c(O)c2c(Br)ccc3c2n(c1=O)C(Cc1ccc(C(F)(F)F)cc1)CO3` (stereo not shown) [Example 26, 2-(8-bromo-7-hydroxy-5-oxo-3-(4-(trifluoromethyl)benzyl)-3,5-dihydro-2H-[1,4]oxazino[2,3,4-ij]quinoline-6-carboxamido)acetic acid], the pIC50 was 8.09. Consider `O=C(O)CNC(=O)c1c(O)c2ccc(Br)c3c2n(c1=O)C(Cc1ccc(C(F)(F)F)cc1)CO3` (stereo not shown) [Example 27, 2-(10-Bromo-7-hydroxy-5-oxo-3-(4-(trifluoromethyl)benzyl)-3,5-dihydro-2H-[1,4]oxazino[2,3,4-ij]quinoline-6-carboxamido)acetic acid], for which the pIC50 was 8.24. Regarding `CS(=O)(=O)c1ccc2c3c1c(O)c(C(=O)NCC(=O)O)c(=O)n3C(Cc1ccc(C(F)(F)F)cc1)CO2` (stereo not shown) [Example 28, 2-(7-Hydroxy-8-(methylsulfonyl)-5-oxo-3-(4-(trifluoromethyl)benzyl)-3,5-dihydro-2H-[1,4]oxazino[2,3,4-ij]quinoline-6-carboxamido)acetic acid], the pIC50 was 7.38. The same measure, in the same setting: in the case of `N#Cc1ccc2c3c1c(O)c(C(=O)NCC(=O)O)c(=O)n3C(Cc1ccc(C(F)(F)F)cc1)CO2` (stereo not shown) [Example 29, 2-(8-Cyano-7-hydroxy-5-oxo-3-(4-(trifluoromethyl)benzyl)-3,5-dihydro-2H-[1,4]oxazino[2,3,4-ij]quinoline-6-carboxamido)acetic acid] it was 8.89. In the case of `Cc1ccc2c3c1c(O)c(C(=O)NCC(=O)O)c(=O)n3C(Cc1ccc(C(F)(F)F)cc1)CO2` (stereo not shown) [Example 30, 2-(7-Hydroxy-8-methyl-5-oxo-3-(4-(trifluoromethyl)benzyl)-3,5-dihydro-2H-[1,4]oxazino[2,3,4-ij]quinoline-6-carboxamido)acetic acid], the pIC50 is 7.41. With `CS(=O)(=O)c1ccc2c(O)c(C(=O)NCC(=O)O)c(=O)n3c2c1OCC3Cc1ccc(C(F)(F)F)cc1` (stereo not shown) [Example 31, 2-(7-Hydroxy-10-(methylsulfonyl)-5-oxo-3-(4-(trifluoromethyl)benzyl)-3,5-dihydro-2H-[1,4]oxazino[2,3,4-ij]quinoline-6-carboxamido)acetic acid], the pIC50 was 9.00.

As for `N#Cc1ccc2c(O)c(C(=O)NCC(=O)O)c(=O)n3c2c1OCC3Cc1ccc(C(F)(F)F)cc1` (stereo not shown) [Example 32, 2-(10-Cyano-7-hydroxy-5-oxo-3-(4-(trifluoromethyl)benzyl)-3,5-dihydro-2H-[1,4]oxazino[2,3,4-ij]quinoline-6-carboxamido)acetic acid], the pIC50 is 8.89. `Cc1ccc2c(O)c(C(=O)NCC(=O)O)c(=O)n3c2c1OCC3Cc1ccc(C(F)(F)F)cc1` (stereo not shown) [Example 33, 2-(7-Hydroxy-10-methyl-5-oxo-3-(4-(trifluoromethyl)benzyl)-3,5-dihydro-2H-[1,4]oxazino[2,3,4-ij]quinoline-6-carboxamido)acetic acid]: the pIC50 was 7.77. On to `CC(=O)c1cc2c3c(c1)c(O)c(C(=O)NCC(=O)O)c(=O)n3C(Cc1ccc(C(F)(F)F)cc1)CO2` (stereo not shown) [Example 34, 2-(9-acetyl-7-hydroxy-5-oxo-3-(4-(trifluoromethyl)benzyl)-3,5-dihydro-2H-[1,4]oxazino[2,3,4-ij]quinoline-6-carboxamido)acetic acid], for which the pIC50 is 8.49. `CC(O)c1cc2c3c(c1)c(O)c(C(=O)NCC(=O)O)c(=O)n3C(Cc1ccc(C(F)(F)F)cc1)CO2` (stereo not shown) [Example 35, 2-(7-Hydroxy-9-(1-hydroxyethyl)-5-oxo-3-(4-(trifluoromethyl)benzyl)-3,5-dihydro-2H-[1,4]oxazino[2,3,4-ij]quinoline-6-carboxamido)acetic acid]: the pIC50 was 7.92.

For the compound `CC(C)(O)c1cc2c3c(c1)c(O)c(C(=O)NCC(=O)O)c(=O)n3C(Cc1ccc(C(F)(F)F)cc1)CO2` (stereo not shown) [Example 36, 2-(7-Hydroxy-9-(2-hydroxypropan-2-yl)-5-oxo-3-(4-(trifluoromethyl)benzyl)-3,5-dihydro-2H-[1,4]oxazino[2,3,4-ij]quinoline-6-carboxamido)acetic acid], the pIC50 is 7.77. As for `N#Cc1ccc2c(O)c(C(=O)NCC(=O)O)c(=O)n3c2c1OCC3` [Example 37, 2-(10-cyano-7-hydroxy-5-oxo-3,5-dihydro-2H-[1,4]oxazino[2,3,4-ij]quinoline-6-carboxamido)acetic acid], the pIC50 was 8.82. Regarding `CS(=O)(=O)c1ccc2c(O)c(C(=O)NCC(=O)O)c(=O)n3c2c1OCC3` [Example 38, 2-(7-Hydroxy-10-(methylsulfonyl)-5-oxo-3,5-dihydro-2H-[1,4]oxazino[2,3,4-ij]quinoline-6-carboxamido)acetic acid], the pIC50 was 8.80. On the same count and under the same terms, the result for `Cc1ccc2c(O)c(C(=O)NCC(=O)O)c(=O)n3c2c1OCC3` [Example 39, 2-(7-Hydroxy-10-methyl-5-oxo-3,5-dihydro-2H-[1,4]oxazino[2,3,4-ij]quinoline-6-carboxamido)acetic acid] reads 7.92; that for `Cc1cc2c3c(c1)c(O)c(C(=O)NCC(=O)O)c(=O)n3CCO2` [Example 43, 2-(7-hydroxy-9-methyl-5-oxo-3,5-dihydro-2H-[1,4]oxazino[2,3,4-ij]quinoline-6-carboxamido)acetic acid], 7.62; that for `N#Cc1ccc2c(O)c(C(=O)NCC(=O)O)c(=O)n3c2c1CCC3` [Example 44, 2-(8-Cyano-1-hydroxy-3-oxo-3,5,6,7-tetrahydropyrido[3,2,1-ij]quinoline-2-carboxamido)acetic acid], 9.05. In the case of `CS(=O)(=O)c1ccc2c(O)c(C(=O)NCC(=O)O)c(=O)n3c2c1CCC3` [Example 45, 2-(1-Hydroxy-8-(methylsulfonyl)-3-oxo-3,5,6,7-tetrahydropyrido[3,2,1-ij]quinoline-2-carboxamido)acetic acid], the pIC50 was 8.96. Same read-out and setting: the result for `Cc1ccc2c(O)c(C(=O)NCC(=O)O)c(=O)n3c2c1CCC3` [Example 46, 2-(1-Hydroxy-8-methyl-3-oxo-3,5,6,7-tetrahydropyrido[3,2,1-ij]quinoline-2-carboxamido)acetic acid] reads 7.74.

For the compound `N#Cc1cc2c3c(c1)c(O)c(C(=O)NCC(=O)O)c(=O)n3CCC2` [Example 48, 2-(9-Cyano-1-hydroxy-3-oxo-3,5,6,7-tetrahydropyrido[3,2,1-ij]quinoline-2-carboxamido)acetic acid], the pIC50 was 8.59.

Staying with this assay, now noted: FLAG-tagged full length PHD2; 0.2 μM 2-oxoglutarate, 0.5 μM HIF-1α peptide; 45 minutes at room temperature; read-out: MS m/z (M + 1)+ and human HIF-PHD2 IC50.
In the case of `O=C(O)CNC(=O)c1c(O)c2ccc(-c3ccccc3)c3c2n(c1=O)CCO3` [Example 40, 2-(7-hydroxy-5-oxo-10-phenyl-3,5-dihydro-2H-[1,4]oxazino[2,3,4-ij]quinoline-6-carboxamido)acetic acid], the pIC50 was 8.80.

The assay is the same for the next values; noted with them: Human HIF-PHD2 IC50, FLAG-tagged full length PHD2; 0.2 μM 2-oxoglutarate, 0.5 μM HIF-1α peptide; 45 minutes at room temperature.
The compound `O=C(O)CNC(=O)c1c(O)c2cc(Br)cc3c2n(c1=O)CCC3` [Example 47, 2-(9-Bromo-1-hydroxy-3-oxo-3,5,6,7-tetrahydropyrido[3,2,1-ij]quinoline-2-carboxamido)acetic acid] gave a pIC50 of 7.00.
